Experiments:
[1] = molecular target: human D2-long dopamine receptor (Homo sapiens (Human), UniProt P14416); test: Radioligand binding (125I-IABN competition), D2; details: HEK cell membranes expressing human D2-long
Description: (§1) The affinities of the target compounds were determined using radioligand binding experiments. […] Competition curves were modeled for a single site. Data from competition dose-response curves were analyzed using Tablecurve program (Jandel). IC50 values were converted to equilibrium dissociation constants (Ki values) using the Cheng and Prusoff correction.

[2] = molecular target: human D3 dopamine receptor (Homo sapiens (Human), UniProt P35462); test: Radioligand binding (125I-IABN competition), D3; details: for Ki: 125I-IABN competition, HEK cell membranes expressing human D3; for D2/D3 (D3 selectivity ratio, D2 Ki/D3 Ki): calculated D2 Ki/D3 Ki
Chain of human D3 dopamine receptor (P35462 whole entry): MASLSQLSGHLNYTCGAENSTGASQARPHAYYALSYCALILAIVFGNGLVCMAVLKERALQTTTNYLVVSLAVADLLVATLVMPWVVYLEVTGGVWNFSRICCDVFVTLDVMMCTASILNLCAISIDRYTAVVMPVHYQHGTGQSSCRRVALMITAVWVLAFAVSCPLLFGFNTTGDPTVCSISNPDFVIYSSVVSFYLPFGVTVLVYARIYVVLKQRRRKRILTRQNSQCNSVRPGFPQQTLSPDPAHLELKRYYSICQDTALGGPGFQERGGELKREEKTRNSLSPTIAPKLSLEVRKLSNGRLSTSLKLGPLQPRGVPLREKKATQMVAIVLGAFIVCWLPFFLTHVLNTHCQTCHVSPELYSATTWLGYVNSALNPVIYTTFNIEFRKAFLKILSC
Description: as §1

Chain of human D2-long dopamine receptor (P14416 whole entry): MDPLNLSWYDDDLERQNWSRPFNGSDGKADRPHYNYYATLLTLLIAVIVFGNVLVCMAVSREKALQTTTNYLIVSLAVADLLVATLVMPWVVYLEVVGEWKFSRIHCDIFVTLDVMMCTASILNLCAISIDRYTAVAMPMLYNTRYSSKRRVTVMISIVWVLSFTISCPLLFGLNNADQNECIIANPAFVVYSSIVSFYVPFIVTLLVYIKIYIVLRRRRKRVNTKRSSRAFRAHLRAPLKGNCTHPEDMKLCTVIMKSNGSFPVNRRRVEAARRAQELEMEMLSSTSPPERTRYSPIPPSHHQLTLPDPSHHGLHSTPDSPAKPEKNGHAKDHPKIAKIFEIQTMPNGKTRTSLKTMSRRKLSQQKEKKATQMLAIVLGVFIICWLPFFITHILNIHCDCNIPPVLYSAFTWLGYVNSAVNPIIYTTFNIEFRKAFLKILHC

Row | Ki [1] | Ki [2] | D2/D3 (D3 selectivity ratio, D2 Ki/D3 Ki) [2] | Structure (SMILES)
1 | 789 ± 192 nM | 70.6 ± 14.8 nM | 11 | Cc1ccccc1N1CCN(C(=O)NCCCCN2CCN(c3cc(C(F)(F)F)nc(C(C)(C)C)n3)CC2)CC1 [Compound 58, N-(4-(4-(2-(tert-Butyl)-6-(trifluoromethyl)pyrimidin-4-yl)piperazin-1-yl)butyl)-4-(o-tolyl)piperazine-1-carboxamide]
2 | 342 ± 22 nM | 19.4 ± 4.1 nM | 18 | CC(C)(C)c1nc(N2CCN(CCCCNC(=O)N3CCN(c4ccc(C#N)cc4)CC3)CC2)cc(C(F)(F)F)n1 [Compound 59, N-(4-(4-(2-(tert-Butyl)-6-(trifluoromethyl)pyrimidin-4-yl)piperazin-1-yl)butyl)-4-(4-cyanophenyl)piperazine-1-carboxamide]
3 | 570 ± 119 nM | 46.6 ± 9.1 nM | 12 | CC(C)(C)c1nc(N2CCN(CCCCNC(=O)N3CCN(c4ccc(Cl)c(Cl)c4)CC3)CC2)cc(C(F)(F)F)n1 [Compound 60, N-(4-(4-(2-(tert-Butyl)-6-(trifluoromethyl)pyrimidin-4-yl)piperazin-1-yl)butyl)-4-(3,4-dichlorophenyl)piperazine-1-carboxamide]
4 | 896 ± 193 nM | 48 ± 10.8 nM | 19 | CC(C)(C)c1nc(N2CCN(CCCCNC(=O)N3CCN(c4cc(C#N)cc(C(F)(F)F)c4)CC3)CC2)cc(C(F)(F)F)n1 [Compound 61, N-(4-(4-(2-(tert-Butyl)-6-(trifluoromethyl)pyrimidin-4-yl)piperazin-1-yl)butyl)-4-(3-cyano-5-(trifluoromethyl)phenyl)piperazine-1-carboxamide]
5 | 1520 ± 344 nM | 106 ± 5.5 nM | 14 | CC(C)(C)c1nc(N2CCN(CCCCNC(=O)N3CCN(c4cc(C(F)(F)F)nc(C(C)(C)C)n4)CC3)CC2)cc(C(F)(F)F)n1 [Compound 62, 4-(2-(tert-Butyl)-6-(trifluoromethyl)pyrimidin-4-yl)-N-(4-(4-(2-(tert-butyl)-6-(trifluoromethyl)pyrimidin-4-yl)piperazin-1-yl)butyl)piperazine-1-carboxamide]
6 | 359 ± 45.8 nM | 19.2 ± 3.6 nM | 19 | CC(C)(C)c1nc(N2CCN(CCCCNC(=O)N3CCN(c4ccnc5cc(Cl)ccc45)CC3)CC2)cc(C(F)(F)F)n1 [Compound 63, N-(4-(4-(2-(tert-Butyl)-6-(trifluoromethyl)pyrimidin-4-yl)piperazin-1-yl)butyl)-4-(7-chloroquinolin-4-yl)piperazine-1-carboxamide]
7 | 167 ± 25.5 nM | 9.8 ± 2 nM | 17 | CN1CCN(C(=O)NCCCCN2CCN(c3cc(C(F)(F)F)nc(C(C)(C)C)n3)CC2)CC1 [Compound 64, N-(4-(4-(2-(tert-Butyl)-6-(trifluoromethyl)pyrimidin-4-yl)piperazin-1-yl)butyl)-4-methylpiperazine-1-carboxamide]
8 | 128 ± 25.8 nM | 8.6 ± 1.1 nM | 15 | CCN1CCN(C(=O)NCCCCN2CCN(c3cc(C(F)(F)F)nc(C(C)(C)C)n3)CC2)CC1 [Compound 65, N-(4-(4-(2-(tert-Butyl)-6-(trifluoromethyl)pyrimidin-4-yl)piperazin-1-yl)butyl)-4-ethylpiperazine-1-carboxamide]
9 | 125 ± 25.3 nM | 9.6 ± 2.2 nM | 13 | CC(C)N1CCN(C(=O)NCCCCN2CCN(c3cc(C(F)(F)F)nc(C(C)(C)C)n3)CC2)CC1 [Compound 66, N-(4-(4-(2-(tert-Butyl)-6-(trifluoromethyl)pyrimidin-4-yl)piperazin-1-yl)butyl)-4-isopropylpiperazine-1-carboxamide]
10 | 626 ± 143 nM | 73.8 ± 17.5 nM | 8 | CC(C)(C)c1nc(N2CCN(CCCCNC(=O)N3CCN(C4CC4)CC3Cc3ccccc3)CC2)cc(C(F)(F)F)n1 (stereo not drawn) [Compound 67, 2-Benzyl-N-(4-(4-(2-(tert-butyl)-6-(trifluoromethyl)pyrimidin-4-yl)piperazin-1-yl)butyl)-4-cyclopropylpiperazine-1-carboxamide]
11 | 184 ± 46.6 nM | 13.8 ± 2.4 nM | 13 | CC(C)(C)c1nc(N2CCN(CCCCNC(=O)N3CCN(CC4CC4)CC3)CC2)cc(C(F)(F)F)n1 [Compound 68, N-(4-(4-(2-(tert-Butyl)-6-(trifluoromethyl)pyrimidin-4-yl)piperazin-1-yl)butyl)-4-(cyclopropylmethyl)piperazine-1-carboxamide]
12 | 215 ± 54.1 nM | 29.8 ± 3.8 nM | 7 | CC(C)(C)c1nc(N2CCN(CCCCNC(=O)N3CCN(C4CCCCC4)CC3)CC2)cc(C(F)(F)F)n1 [Compound 69, N-(4-(4-(2-(tert-Butyl)-6-(trifluoromethyl)pyrimidin-4-yl)piperazin-1-yl)butyl)-4-cyclohexylpiperazine-1-carboxamide]
13 | 215 ± 36.3 nM | 33.5 ± 8 nM | 6 | CC(C)(C)c1nc(N2CCN(CCCCNC(=O)N3CCCc4ccccc43)CC2)cc(C(F)(F)F)n1 [Compound 70, N-(4-(4-(2-(tert-Butyl)-6-(trifluoromethyl)pyrimidin-4-yl)piperazin-1-yl)butyl)-3,4-dihydroquinoline-1(2H)-carboxamide]
14 | 281 ± 46.5 nM | 27.4 ± 3.8 nM | 10 | CC(C)(C)c1nc(N2CCN(CCCCNC(=O)N3CCc4ccccc43)CC2)cc(C(F)(F)F)n1 [Compound 71, N-(4-(4-(2-(tert-Butyl)-6-(trifluoromethyl)pyrimidin-4-yl)piperazin-1-yl)butyl)indoline-1-carboxamide]
15 | 820 ± 178 nM | 84.2 ± 20.3 nM | 10 | CC(C)(C)c1nc(N2CCN(CCCCNC(=O)N3CCN(Cc4cccc(C#N)c4)CC3)CC2)cc(C(F)(F)F)n1 [Compound 72, N-(4-(4-(2-(tert-Butyl)-6-(trifluoromethyl)pyrimidin-4-yl)piperazin-1-yl)butyl)-4-(3-cyanobenzyl)piperazine-1-carboxamide]
16 | 990 ± 192 nM | 130 ± 13 nM | 8 | CC(C)(C)c1nc(N2CCN(CCCCNC(=O)N3CCN(C(c4ccccc4)c4ccc(Cl)cc4)CC3)CC2)cc(C(F)(F)F)n1 (stereo not drawn) [Compound 73, N-(4-(4-(2-(tert-Butyl)-6-(trifluoromethyl)pyrimidin-4-yl)piperazin-1-yl)butyl)-4-((4-chlorophenyl)(phenyl)methyl)piperazine-1-carboxamide]
17 | 585 ± 72.7 nM | 66.8 ± 16.3 nM | 9 | CC(C)(C)c1nc(N2CCN(CCCCNC(=O)N3CCN(CC=Cc4ccccc4)CC3)CC2)cc(C(F)(F)F)n1 [Compound 74, N-(4-(4-(2-(tert-Butyl)-6-(trifluoromethyl)pyrimidin-4-yl)piperazin-1-yl)butyl)-4-cinnamylpiperazine-1-carboxamide]
18 | 59.3 ± 7.5 nM | 9.9 ± 1.7 nM | 6 | CC(C)(C)c1nc(N2CCN(CCCCNC(=O)N3CCC(N4CCCCC4)CC3)CC2)cc(C(F)(F)F)n1 [Compound 75, N-(4-(4-(2-(tert-Butyl)-6-(trifluoromethyl)pyrimidin-4-yl)piperazin-1-yl)butyl)-[1,4′-bipiperidine]-1′-carboxamide]
19 | 125 ± 26.6 nM | 18 ± 3 nM | 7 | CN1CCC(N2CCN(C(=O)NCCCCN3CCN(c4cc(C(F)(F)F)nc(C(C)(C)C)n4)CC3)CC2)CC1 [Compound 76, N-(4-(4-(2-(tert-Butyl)-6-(trifluoromethyl)pyrimidin-4-yl)piperazin-1-yl)butyl)-4-(1-methylpiperidin-4-yl)piperazine-1-carboxamide]
20 | 981 ± 73.9 nM | 138 ± 28.8 nM | 7 | CC(C)(C)c1nc(N2CCN(CCCCNC(=O)N3CCN(S(=O)(=O)c4ccccc4)CC3)CC2)cc(C(F)(F)F)n1 [Compound 77, N-(4-(4-(2-(tert-Butyl)-6-(trifluoromethyl)pyrimidin-4-yl)piperazin-1-yl)butyl)-4-(phenylsulfonyl)piperazine-1-carboxamide]
21 | 448 ± 75.9 nM | 29 ± 4.8 nM | 15 | CC(C)(C)c1cc(N2CCN(CCCCNC(=O)N3CCN(S(=O)(=O)c4ccccc4)CC3)CC2)nc(C(C)(C)C)n1 [Compound 78, N-(4-(4-(2,6-Di-tert-butylpyrimidin-4-yl)piperazin-1-yl)butyl)-4-(phenylsulfonyl)piperazine-1-carboxamide]
22 | 834 ± 133 nM | 51.8 ± 11.4 nM | 16 | CC(C)(C)c1nc(N2CCN(CCCCNC(=O)N3CCC(O)(c4ccc(Cl)cc4)CC3)CC2)cc(C(F)(F)F)n1 [Compound 79, N-(4-(4-(2-(tert-Butyl)-6-(trifluoromethyl)pyrimidin-4-yl)piperazin-1-yl)butyl)-4-(4-chlorophenyl)-4-hydroxypiperidine-1-carboxamide]
23 | 863 ± 135 nM | 118 ± 20.1 nM | 7 | CC(C)(C)c1nc(N2CCN(CCCCNC(=O)N3CCN(C4CC4)CC3c3ccccc3)CC2)cc(C(F)(F)F)n1 (stereo not drawn) [Compound 80, N-(4-(4-(2-(tert-Butyl)-6-(trifluoromethyl)pyrimidin-4-yl)piperazin-1-yl)butyl)-4-cyclopropyl-2-phenylpiperazine-1-carboxamide]
24 | 507 ± 16.6 nM | 44.2 ± 8.2 nM | 11 | CC(C)(C)c1nc(N2CCN(CCCCNC(=O)N3CCCN(c4ccccc4)CC3)CC2)cc(C(F)(F)F)n1 [Compound 81, N-(4-(4-(2-(tert-Butyl)-6-(trifluoromethyl)pyrimidin-4-yl)piperazin-1-yl)butyl)-4-phenyl-1,4-diazepane-1-carboxamide]
